# Measurements published in patent US8802104B2, “Parathyroid hormone receptor activation and stem and progenitor cell expansion” (The General Hospital Corporation, priority 2002, dated 2014).
# “Also recorded” adds a separate entry of the source.
# Key:
# [1] = tested on: C57Bl/6 stroma and hematopoietic cells (LTC-IC); assay: LTC-IC assay on wild-type stroma, in vitro treatment with PTH; type: cell-based, mouse
# Procedure: (§1) Murine bone marrow stromal cells from confluent cultures were irradiated (15Gy) and plated at a concentration of 20,000 cells/well in 96-well plates in long-term culture medium. Cells were then seeded into the plates in two-fold serial limiting dilutions and cultured at 33° C./5% CO2 in a humidified atmosphere. Cultures were maintained for 5 weeks, changing half of the medium in the wells weekly. Following this, the medium was replaced with methylcellulose containing medium supplemented with recombinant cytokines as described above, then scored for colony growth ten days following the addition of the medium.
# LTC-IC assays were performed using wild-type stroma and hematopoietic cells. […] After fixation in 10% Neutral Formalin Buffer for 30 minutes at room temperature, alkaline phosphatase activity was determined histochemically by incubation for 45 minutes at RT with a mixture of 0.1 mg/ml naphthol AS-MX phosphate (Sigma), 0.5% N,N-dimethylformamide, 0.6 mg/ml red violet LB salt (Sigma) in 0.1 M Tris-HCl (pH 8.5). Alkaline phosphatase positive cells were counted at day 10 of culture, when the cultures were subconfluent and individual cells could be identified. […]
# [2] = tested on: hematopoietic stem cells (LTC-ICs) in the bone marrow; assay: In vivo PTH administration: LTC-IC frequency in bone marrow; parameters: species or system C57Bl/6 mice
# Procedure: as §1
# For PTH administration, 6-8 week old wild type C57/B male mice were used. […] Control mice (n=4) were injected with an equivalent volume of vehicle. At the end of the treatment period, ionized serum calcium was measured by the Ciba/Corning 634 Ca^++/pH analyzer, and, after euthanasia, the hind limbs and forelimbs were dissected and utilized for cytologic and histologic analysis.
# As treatment of stromal cells with PTH led to an increase in the ability of the stromal cell population to support hematopoietic stem cells, it was investigated whether these effects could be recapitulated in vivo. Wild-type C57Bl/6 mice were injected daily with PTH using an intermittent dosing schedule known to increase osteoblasts, and the frequencies of LTC-ICs in the bone marrow were measured. […] To further define that functional stem cells were increased after PTH treatment, an in vivo assay of competitive transplantation into secondary recipients was used and a >2-fold increase in HSCs was documented (P=<0.05, FIG. 5f). […] Therefore, pharmacological activation of PPR increased stem cell number, but appeared to do so without a broad hematopoietic cell expansion.
# [3] = tested on: HSCs (CD45.2+ cells in bone marrow); assay: Competitive transplantation into secondary recipients; type: in vivo; conditions: donor mice PTH treated four weeks; read 6 weeks after transplant; P<0.05, FIG. 5f
# Procedure: For the competitive transplant studies, 4×10^5 BM MNCs, obtained from CD45.1^+ B6.SJL (Jackson Laboratories, Bar Harbor, Me.) mice were mixed with 2×10^5 cells from mock injected or PTH injected CD45.2^+ C57Bl/6 mice. Recipient B6.SJL mice that had been lethally irradiated 24 hours previously with 10Gy of radiation (^137Cs source) were injected with cells. After 6 weeks, the mice were euthanized with CO2, the BM was removed and flushed with fully supplemented Iscove's Medium. The relative contribution of engraftment from the different cell sources was assessed by flow cytometry utilizing anti-CD45.1 and anti-CD45.2 antibodies (Pharmingen, San Diego, Calif.). To assess the effects of PTH administration post transplantation, recipient C57Bl/6 mice were lethally irradiated and then injected with 2×10^5 BM MNCs from a donor B6.SJL mouse. Twenty-four hours following the injection of the cells, mice were injected with PTH or mock injected as described above for four weeks.
# (§2) As treatment of stromal cells with PTH led to an increase in the ability of the stromal cell population to support hematopoietic stem cells, it was investigated whether these effects could be recapitulated in vivo. Wild-type C57Bl/6 mice were injected daily with PTH using an intermittent dosing schedule known to increase osteoblasts, and the frequencies of LTC-ICs in the bone marrow were measured. […]
# [4] = tested on: hematopoietic progenitors (CFU-C); assay: In vivo PTH administration: CFU-C assay; parameters: species or system C57Bl/6 mice; conditions: four weeks PTH; P=0.780, FIG. 5g
# Procedure: Mononuclear cells were isolated from the bone marrow and cultured at 10^4 cells/ml in the following medium: 0.9% methylcellulose, 15% FBS, 1% BSA, 10 μg/ml rh insulin, 200 μg/ml human transferrin, 10^−4 M 2-mercaptoethanol, 2 mM L-glutamine, 50 ng/ml rmSCF, 10 ng/ml rmIL-3, 10 ng/ml rhIL-6 and 3 units/ml rhEpo (M3434; Stem Cell Technologies, Vancouver, Canada). At day 10, the total number of colonies were counted and reported as total CFU-Cs.
# For PTH administration, 6-8 week old wild type C57/B male mice were used. Rat PTH (1-34) (80 μg/Kg of body weight) was injected intraperitoneally 5×/week for 4 weeks (n=5). Control mice (n=4) were injected with an equivalent volume of vehicle. At the end of the treatment period, ionized serum calcium was measured by the Ciba/Corning 634 Ca^++/pH analyzer, and, after euthanasia, the hind limbs and forelimbs were dissected and utilized for cytologic and histologic analysis.
# as §2
substance,measurement,setting,value
Rat PTH (1-34),ability of stroma to support LTC-ICs,"[1]; PTH 10^-7 M present during expansion of the stromal population, P=0.004, FIG. 5a",enhanced the ability of the stroma to support LTC-ICs; also recorded: increasing LTC-IC
same,LTC-IC support,"[1]; stromal cells expanded in the absence of PTH, or PTH added at the same time as the hematopoietic cells",the effect was not seen
same,hematopoietic stem cells over mock injected mice,"[2]; four weeks PTH treatment, 80 μg/Kg i.p. 5x/week",significant increase in the hematopoietic stem cells
same,"limit dilution LTC-IC assay, stem-like cells","[2]; four weeks PTH, P<0.005, FIG. 5e",an increase in stem-like cells
same,hematopoietic stem cell population (frequencies of LTC-ICs in the bone marrow),"[2]; two week PTH treatment, 80 μg/Kg i.p.",did not result in any significant increase
same,"increase in HSCs, competitive transplantation",[3],> 2 fold
same,level of hematopoietic progenitors by CFU-C assay,[4],did not affect
